Measured values: ChEMBL document CHEMBL1130673, “Hydroindenic-guanylhydrazones. Synthesis and evaluation as inotropic agents” (1998)

Columns and labels:
Cavia porcellus [1] = organism: Cavia porcellus; test: Compound was measured for inotropic activity against isolated guinea pig atria at concentration 3 x 10e-4; Negative inotropic activity; type: functional
Cavia porcellus [2] = organism: Cavia porcellus; test: Compound was measured for inotropic activity against isolated guinea pig atria at concentration 3 x 10e-4; type: functional

SMILES | Activity (Cavia porcellus [1]) | Reduction (Cavia porcellus [2])
C[C@]12CCC(OC(c3ccccc3)(c3ccccc3)c3ccccc3)C[C@@]1(O)CC[C@@H]2CO (stereo not given in full) | Negative inotropic activity | 
COC(=O)/C=C/[C@H]1CC[C@]2(O)CC3(CC[C@]12C)SCCCS3 |  | 85%
CC(=O)OC[C@H]1CC[C@]2(O)CC3(CC[C@]12C)SCCCS3 |  | 56%
C[C@]12CCC3(C[C@@]1(O)CCC2/C=N/N=C(N)N)OCCO3 (stereo not given in full) | Negative inotropic activity | 
C[C@]12CC/C(=N\N=C(N)N)C[C@@]1(O)CCC2/C=N/N=C(N)N (stereo not given in full) | Negative inotropic activity | 
